These results are taken from patent publication US20250241914A1, “BIFUNCTIONAL PHARMACEUTICAL COMPOUNDS” (DE MONTFORT UNIVERSITY, priority 2024, published 2025).

The test system of experiment [1] is M. tuberculosis rifampicin resistant strain RpoBS522L (H37Rv). Type of experiment: cell-based, Mycobacterium tuberculosis.
Experiment [2] deals with M. tuberculosis rifampicin-resistant strain RpoBS531L. Type of experiment: cell-based, Mycobacterium tuberculosis.

Consider `CO[C@H]1/C=C/O[C@@]2(C)Oc3c(C)c(O)c4c(O)c(c(CNCCOCCOCCOCn5cc(CCCn6cc(F)c(=O)[nH]c6=O)nn5)c(O)c4c3C2=O)NC(=O)/C(C)=C\C=C\[C@H](C)[C@H](C)[C@@H](C)[C@@H](O)[C@@H](C)[C@H](OC(C)=O)[C@@H]1C` [Compound 3C], for which the “Mycobacterium tuberculosis strain MIC90, RpoBS522L H37Rv” value in experiment [1] is 0.47 µM. In experiment [2], the “Mycobacterium tuberculosis strain MIC90, RpoBS531L” value is 0.21 µM.
The corresponding values for `NNC(=O)c1ccncc1` [Isoniazid, reference compound] are 0.29 µM and 0.55 µM.
In the same order, the values of `CO[C@H]1/C=C/O[C@@]2(C)Oc3c(C)c(O)c4c(O)c(c(CNCCOCCOCCOCn5cc(CCn6cc(F)c(=O)[nH]c6=O)nn5)c(O)c4c3C2=O)NC(=O)/C(C)=C\C=C\[C@H](C)[C@H](C)[C@@H](C)[C@@H](O)[C@@H](C)[C@H](OC(C)=O)[C@@H]1C` [Compound 3B] are 0.32 µM and 0.23 µM.
In the case of `CO[C@H]1/C=C/O[C@@]2(C)Oc3c(C)c(O)c4c(O)c(c(CNCCCn5cc(CCn6cc(F)c(=O)[nH]c6=O)nn5)c(O)c4c3C2=O)NC(=O)/C(C)=C\C=C\[C@H](C)[C@H](C)[C@@H](C)[C@@H](O)[C@@H](C)[C@H](OC(C)=O)[C@@H]1C` [Compound 3A], the “Mycobacterium tuberculosis strain MIC90, RpoBS522L H37Rv” value in experiment [1] was 0.31 µM. Further, in experiment [2], the “Mycobacterium tuberculosis strain MIC90, RpoBS531L” value amounted to 0.22 µM.
